The text below walks through data of patent US6921531B2, “Administering bifunctional molecules containing a drug moiety and presenter protein ligand for therapy” (The Board of Trustees of the Leland Stanford Junior …, priority 1998, dated 2005).

One assay concerns the target T1, Fyn SH2 domain (Homo sapiens, UniProt P06241).
T1 construct: The Fyn, Lck and PLC SH2 domains were expressed in bacteria as GST fusion proteins; GST (cleaved yes); made in house; host or cells: bacteria
The assay is described as follows: Competition binding assay of radioactive Fyn SH2 domain to pYEEI beads. To be noted: for Effect of FKBP12 on affinity for the Fyn SH2 domain: 1.0 µM ligand plus FKBP12 (0.25-4.0 µM or 2.0 µM). From the text:
The pYEEI peptide was coupled to Affi-Gel 10 beads (Biorad) via its amino-group. The Fyn, Lck and PLC SH2 domains were expressed in bacteria as GST fusion proteins. The linker between the GST protein and the SH2 domain contained a thrombin cleavage site and a protein kinase A (PKA) phosphorylation site. The fusion protein on glutathione beads was radioactively labeled at the PKA phosphorylation site using PKA (Sigma). After extensive washing of the beads, the radioactive SH2 domain was released by cleavage with thrombin (Sigma). In a typical binding assay, 7.5 L of a 1:1 peptide bead slurry were incubated with the radioactive SH2 domain (200 nM) for 2 hours in 100 L of binding buffer (20 mM Tris pH7.2; 150 mM NaCl). In order to separate the radioactive protein bound to the beads, the binding reaction was transfered into a PCR tube (USA Scientific Plastic), whose bottom had been punctured with a 26gauge needle. The PCR tube was placed in a 0.5 mL Eppendorf tube which in turn was placed in a regular 1.5 mL Eppendorf tube. The tubes were spun for 1 second at maximal speed in an Eppendorf centrifuge resulting in the separation of the beads remaining in the PCR tube and the supernatant, which was collected in the 0.5 ml Eppendorf tube. The beads were resuspended in […] PBS and the radioactivity was counted in a liquid scintillation counter after addition of 3 ml scintillation fluid. The radioactivity remaining in the 100 L supernatant was counted in the same way. It was determined that under the conditions described 65% Fyn, 25% PLC and 15%Lck SH2 domain were bound to the beads. By increasing the amount of beads, up to 80% Fyn, 40% PLC and 25% Lck could be bound. These amounts reflect the active fraction of SH2 domains in the different protein preparations.
In order to determine the relative affinity of the SH2 domains for FKpYEEI or SLFpYEEI alone and FKpYEEI or SLFpYEEI bound to FKBP12 and FKBP52, the following competition assay was used. Radioactive SH2 domains were incubated with pYEEI peptide beads and FKpYEEI or SLFpYEEI in the presence or absence of the respective FKBP proteins. FKpYEEI and FKpYEEI/FKBP as well as SLFpYEEI and SLFpYEEI/FKBP compete for binding of the SH2 domains with the peptide beads. The higher the affinity of the FKpYEEI or SLFpYEEI ligand in the supernatant, the less SH2 domain is bound to the peptide beads (FIG. 3).
Using the competition binding assay described above, FKpYEEI was added to peptide beads and the Fyn SH2 domain in the presence of increasing concentrations of FKBP52 (FIG. 4). In this assay, in 100 L binding reactions, radioactively labeled Fyn SH2 domain (200 nM) was incubated with 7.5 L of a 1:1 pYEEI bead slurry. No FKpYEEI, 1.0 M FKpYEEI or 1.0 M FKpYEEI plus increasing concentrations of FKBP52 (0.25-4.0 M) were added. The binding reactions were rotated at room temperature for 2 hours. The supernatant was separated from the beads by spinning the binding reactions in punctured PCR tubes for 1 sec in an Eppendorf centrifuge at maximal speed. The beads were resuspended in 100 1 PBS and the radioactivity bound to the beads was counted in a liquid scintillation vial for 30 sec. The radioactivity bound to the beads in the presence of only the Fyn SH2 domain was plotted as 100% of maximal Fyn SH2 domain binding to pYEEI beads. The radioactivity bound in the presence of FKpYEEI and FKBP52 was calculated as the percentage of maximal Fyn SH2 domain binding. Every binding reaction was done in triplicate. The data points reflect the average of the three binding reactions. The error bars indicate the standard error.
In this assay, in 100 L binding reactions, radioactively labeled Fyn SH2 domain (200 nM) was incubated with 7.5 L of a 1:1 pYEEI bead slurry. […] The binding reactions were rotated at room temperature for 2 hours, centrifuged and analysed as described above. […]

The next assay concerns the target T2, FKBP52 (Homo sapiens, UniProt Q02790).
T2 construct: His6 (N); made in house
T2 sequence (Q02790 1-459): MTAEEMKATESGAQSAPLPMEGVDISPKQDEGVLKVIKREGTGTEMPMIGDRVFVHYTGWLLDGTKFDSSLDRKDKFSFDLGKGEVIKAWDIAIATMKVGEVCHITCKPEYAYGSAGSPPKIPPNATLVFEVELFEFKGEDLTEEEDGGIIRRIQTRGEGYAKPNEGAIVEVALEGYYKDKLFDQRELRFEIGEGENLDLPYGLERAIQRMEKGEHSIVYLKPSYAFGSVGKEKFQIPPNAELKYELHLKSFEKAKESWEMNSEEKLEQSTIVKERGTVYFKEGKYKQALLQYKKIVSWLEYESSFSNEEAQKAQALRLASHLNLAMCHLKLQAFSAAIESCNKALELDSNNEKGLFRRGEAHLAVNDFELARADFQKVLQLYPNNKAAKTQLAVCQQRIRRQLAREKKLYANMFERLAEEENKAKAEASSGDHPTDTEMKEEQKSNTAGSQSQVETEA
The experiment in a line: Binding constants (Kd) for FKBP52, isothermal titration calorimetry. The text has this: SLF was synthesized according to the procedures of Holt et al. [J. Am. Chem. Soc. 1993, 115, 9925]. SLF was coupled to the N-terminus of the resin-bound protected pYEEI peptide using PyBOP. The heterodimeric SLFpYEEI was deprotected and cleaved from the Novasyn TGT resin (Calbiochem-Novabiochem, San Diego, Ca.) using 25% trifluoroacetic acid and 2.5% triisopropyl silane in methylene chloride and the desired product was isolated using reverse phase HPLC. C. […] Recombinant FKBP12 was expressed as a GST fusion protein and bound to glutathione beads (Pharmacia). Using thrombin (Sigma) to cleave the GST-FKBP12 fusion protein at a thrombin cleavage site in the linker between GST and FKBP12, recombinant FKBP12 could be released from the glutathione beads where GST remained bound. FKBP52 was expressed with a tag of six histidine residues at its N-terminus (pET28c expression vector, Novagen). The recombinant protein was bound via the histidine tag to Ni^2+ NTA agarose beads (Qiagen), washed extensively and eluted with imidazole. […]
SLFpYEEI and FKpYEEI are bifunctional molecules that can bind FKBP12 and FKBP52 as well as the Fyn SH2 domain (FIG. 2). The binding constants (Kd values) of the bifunctional molecules for the three proteins were measured using isothermal titration calorimetry (ITC) (Table 1).

Molecules are shown by their SMILES. Entries after “also recorded” stand apart in the source; their conditions may differ.

T1 sequence (P06241 149-246 limits assumed): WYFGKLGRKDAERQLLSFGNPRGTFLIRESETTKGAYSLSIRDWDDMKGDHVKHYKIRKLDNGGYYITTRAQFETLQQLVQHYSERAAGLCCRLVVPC

Consider `CC[C@H](C)[C@H](NC(=O)[C@H](CCC(=O)O)NC(=O)[C@H](CCC(=O)O)NC(=O)[C@H](Cc1ccc(OP(=O)(O)O)cc1)NC(=O)COc1cccc([C@@H](CCc2ccc(OC)c(OC)c2)OC(=O)[C@@H]2CCCCN2C(=O)C(=O)C(C)(C)CC)c1)C(=O)O` [SLFpYEEI], for which the “Effect of FKBP12 on affinity for the Fyn SH2 domain” value at Fyn SH2 domain is “reduced affinity for the Fyn SH2 domain; also recorded: reduced binding”. The “Factor of affinity reduction for the Fyn SH2 domain in complex with FKBP12” value on Fyn SH2 domain (IC50 with FKBP12 vs without) is on record as “six”.

For orientation: Kd means the equilibrium constant for the complex coming apart. The low end stands for tighter binding, the high end for weaker binding. On to `CC[C@H](C)[C@H](NC(=O)[C@H](CCC(=O)O)NC(=O)[C@H](CCC(=O)O)NC(=O)[C@H](Cc1ccc(OP(=O)(O)O)cc1)NC(=O)OCC[C@@H]1/C=C(\C)C[C@H](C)C[C@H](OC)[C@H]2O[C@@](O)(C(=O)C(=O)N3CCCC[C@H]3C(=O)O[C@H](/C(C)=C/[C@@H]3CC[C@@H](O)[C@H](OC)C3)[C@H](C)[C@@H](O)CC1=O)[C@H](C)C[C@@H]2OC)C(=O)O` [FKpYEEI], for which the Kd on FKBP52 was 150 nM. The “Effect of FKBP12 on affinity for the Fyn SH2 domain” value at Fyn SH2 domain was “does not enhance the binding affinity for the Fyn SH2 domain; also recorded: does not affect the affinity”. In addition, the “Effect of FKBP52 on affinity for the Fyn SH2 domain” value on Fyn SH2 domain (1.0 M ligand plus FKBP52 0.25-4.0 M) is listed as “higher affinity for the Fyn SH2 domain”. Also, the “Enhancement of affinity in the context of FKBP52 in respect to pYEEI” value at Fyn SH2 domain (IC50 of FKpYEEI plus FKBP52 vs IC50 of pYEEI) was 4.4 fold. Further, the “Factor of affinity enhancement for the Fyn SH2 domain in complex with FKBP52” value at Fyn SH2 domain (IC50 with FKBP52 vs without) is reported as “three”.
